Earlier results, collected in patent US11661349B2, “Method for making coffee husk reducing agent” (Imam Abdulrahman Bin Faisal University, priority 2019, dated 2023).

What was measured:
Aspergillus niger = conditions: A. niger; from Elefanti et al. 2013
Aspergillus flavus = conditions: A. flavus; from Elefanti et al. 2013

OC(Cn1cncn1)(Cn1cncn1)c1ccc(F)cc1F [Flucanazole]
100 µg/mL: MFC (Minimum Fungicidal Concentration) (Aspergillus niger) | MIC (Aspergillus niger) | MFC (Minimum Fungicidal Concentration) (Aspergillus flavus) | MIC (Aspergillus flavus)
